Publication PMC9675976, “Selfish uptake versus extracellular arabinoxylan degradation in the primary degrader Ruminiclostridium cellulolyticum, a new string to its bow” (Biotechnology for Biofuels and Bioproducts, 2022)
Entries after “also recorded” stand apart in the source; their conditions may differ. Where two headings read alike, the source gives them in different places.

B1: XuaH (Ruminiclostridium cellulolyticum H10) (protein)
chain: MAIFQANFFAKTMKRSICFNALIPNDKYQAPDQEIKDEPKGPMKSIYLLHGYSGNHTDWLTWTKIQELSLKYNIAVFMPSGENFFYVDDEEVGAYYGELIGNELVDYTRSTFHLSDKREDTFIGGLSMGGYGAIRNGLKYSERFGRIIALSSALITNQIAGITPDFKGPVADYPYYRRVFGDLDRLLGGDKDPEALIRSLKEKNADIPKIYMACGTEDFLINENRELHEFLVSEKVEHTYIEDSGVHDWKFWNEYIDKGLAWATE
B2: XuaE (Ruminiclostridium cellulolyticum H10) (protein)
chain: MKIQNPIIWADMPDPDIIRVGDIYYMVSTTMFVMPGAPILKSKDLYHWELVSYVFNTIEDNDIYQLKNGKTAYGKGQWATSLRFFNGLYYACFVCHDMQKTYIYYTDDIEKSGWERYVINNVFHDMSFLFDNNRSYLIYGNGDIKIVELKDDLSGIKDGGVNQLLFSTPSENIMLRCEGCRAYKINGYYYLLFIEWPNDGNSRRRVVCYRSKDLLGEYDRKILLDDDMEYQNQGIAQGAIIDTPEGEWYSILFQDHGAVGRIPYLLPVSWEDDWPNLGVNEKVPESFEIPFEAYDTKPLIVSDSFNHNENKLDLRWQWNHNPEEDCWSFTEHPGYLRLRTQSLATDILTARNTLTQRTSGPQCAFSVELKTEGMKAGDYAGLVALQGNYGAIGIRADENNLKRIIVSKKGSDGRQIEEEYRLFADSRILIKIEFDFRNSSDIAKFYYSQDGIGWIKLGSDLHMTYTLDLFIGYRIGIFYYSQKAAGGFADFRNFSYESRQ

What was measured:
XuaA [1] = target: T1, XuaA (Ruminiclostridium cellulolyticum, UniProt B8I0N3); experiment: Thermal shift assay (TSA) of XuaA with carbohydrate ligands; assay type: binding; conditions: for Binding to XuaA (in words): screened by TSA, then ITC
T1 sequence (B8I0N3 entry or part of it): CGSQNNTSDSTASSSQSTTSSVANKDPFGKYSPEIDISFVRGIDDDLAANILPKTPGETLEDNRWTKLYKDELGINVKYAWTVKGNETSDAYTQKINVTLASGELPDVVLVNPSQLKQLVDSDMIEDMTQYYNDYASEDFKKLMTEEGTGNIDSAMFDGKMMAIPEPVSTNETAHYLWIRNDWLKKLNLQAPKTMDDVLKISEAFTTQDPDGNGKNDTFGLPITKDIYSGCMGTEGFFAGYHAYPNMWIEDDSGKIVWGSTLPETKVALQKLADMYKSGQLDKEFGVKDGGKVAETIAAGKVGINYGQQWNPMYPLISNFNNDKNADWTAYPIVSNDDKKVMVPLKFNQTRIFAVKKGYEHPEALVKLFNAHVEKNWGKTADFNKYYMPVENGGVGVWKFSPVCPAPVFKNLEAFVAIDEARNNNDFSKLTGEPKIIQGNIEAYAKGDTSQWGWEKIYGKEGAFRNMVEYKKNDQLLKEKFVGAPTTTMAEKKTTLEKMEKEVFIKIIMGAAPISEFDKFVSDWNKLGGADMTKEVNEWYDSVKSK
Description: (§1) XOS and AXOS were purchased from Megazyme: A^3X (ref O-A^3X), A^2XX (ref O-A^2XX), A^2,3XX (ref O-A^2,3XX), XA^3XX (ref O-XA^3XX), XA^2,3XX (ref O-XA^2,3XX), XAXXMIX (ref O-XAXXMIX), X2 to X6 (ref O-XBI, O-XTR, O-XTE, O-XPE, O-XHE, respectively) (Fig. 3) (Megazyme). For TSA experiments, monosaccharides, XOS and AXOS were tested at a final concentration of 1 mM or 0.1 mM (for X4, X5, and X6). Experiments were performed with XuaA (8 µM) in 25 mM phosphate buffer pH 7 and SYPRO orange (1/500) (Sigma-Aldrich). Melting curves were monitored from 10 to 90 °C with 0.5 °C increment every 30 s, on CFX96 touch real-time PCR detection system (Bio-Rad, France) and analyzed using the Bio-Rad CFX Maestro 1.1 software.

XuaA [2] = target: T1, XuaA; experiment: Isothermal titration calorimetry (ITC) of XuaA with ligands; assay type: binding; conditions: 25 °C, 25 mM phosphate buffer pH 7.0
Description: as §1
A MicroCal PEAQ-ITC (Malvern, Malvern, UK) was used to determine thermodynamic parameters of the binding at 25 °C in 25 mM phosphate buffer, pH 7.0. The ligands (50–2000 µM) were injected (one injection with 0.4 µL followed by 18 injections of 2 µL) in the cell containing XuaA (5–50 µM) in the same buffer. At least one duplicate was performed.

XuaD = XuaD (Ruminiclostridium cellulolyticum, UniProt B8I0N6); experiment: Enzyme activity of XuaD on AXOS (HPAEC-PAD); assay type: biochemical; conditions: for Products released by XuaD: HPAEC-PAD; for Specific activity (IU) of XuaD: substrate 1 mM, 37 °C
Sequence of XuaD (B8I0N6 entry or part of it): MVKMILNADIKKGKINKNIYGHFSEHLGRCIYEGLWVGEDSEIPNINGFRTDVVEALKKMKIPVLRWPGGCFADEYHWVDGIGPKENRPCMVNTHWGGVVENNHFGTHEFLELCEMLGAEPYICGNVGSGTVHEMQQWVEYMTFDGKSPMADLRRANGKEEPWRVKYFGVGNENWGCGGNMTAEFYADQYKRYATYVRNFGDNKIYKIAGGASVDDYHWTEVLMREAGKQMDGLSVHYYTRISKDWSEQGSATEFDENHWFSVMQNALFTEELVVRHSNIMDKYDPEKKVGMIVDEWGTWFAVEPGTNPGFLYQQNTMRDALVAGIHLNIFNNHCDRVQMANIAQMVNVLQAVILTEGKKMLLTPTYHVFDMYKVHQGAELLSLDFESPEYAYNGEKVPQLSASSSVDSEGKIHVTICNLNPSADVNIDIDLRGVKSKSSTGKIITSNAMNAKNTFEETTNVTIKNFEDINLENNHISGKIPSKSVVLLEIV
Description: (§2) XuaD, E, F, G (0.01 to 1 µM) were tested with different AXOS and/or XOS at 1 mM with incubation times varying from 5 min to 24 h. Enzymes (10 nM) were incubated at 37 °C for 5 min, kinetic parameters of XuaD were determined with both A^2,3XX and A^2XX, with sugar concentration varying from 0.05 to 8 mM, and XuaE with A^2,3XX with sugar concentration varying from 0.05 to 1 mM (at least 9 concentration point). Substrates and released products were quantified by high performance anion exchange chromatography coupled with pulsed amperometric detection on an ICS-3000 using a PA1 column (Thermo Scientific). Sugars were eluted with the buffers 0.1 M NaOH and 0.5 M sodium acetate + 0.1 M NaOH as the eluants A and B, respectively, using the multistep procedure as follows: isochratic separation (5 min, 95% A + 5% B), separation gradient (8 min, 10–37% B), column wash (2 min, 99% B), and subsequent column equilibration (2.5 min, 95% A + 5% B).

XuaE = XuaE (Ruminiclostridium cellulolyticum, UniProt B8I0N8); experiment: Enzyme activity of XuaE on AXOS (HPAEC-PAD); assay type: biochemical; conditions: for Products released by XuaE: HPAEC-PAD; for Specific activity (IU) of XuaE: substrate 1 mM, 37 °C
Description: as §2

XuaG = experiment: Enzyme activity of XuaG on AXOS and XOS (HPAEC-PAD); assay type: biochemical, Ruminiclostridium cellulolyticum; conditions: substrate 1 mM, 37 °C
Description: as §2

XuaF = experiment: Enzyme activity of XuaF on AXOS and XOS (HPAEC-PAD); assay type: biochemical, Ruminiclostridium cellulolyticum; conditions: substrate 1 mM, 37 °C
Description: as §2

[3] = substrate: CC(=O)Oc1cccc2ccccc12; experiment: Esterase activity of XuaH; assay type: biochemical, Ruminiclostridium cellulolyticum; conditions: other: 37 °C, pH 7, substrate 110 µM to 5.36 mM
Description: Esterase activity was tested using 1-Naphthyl acetate. Release of 1-Naphthol was monitored at 320 nm during 5 min at 37 °C in 25 mM phosphate buffer pH 7, with substrate final concentration ranging from 110 µM and 5.36 mM, and with XuaH (0.1 µM) or XuaJ (0.01 µM). Concentration of released 1-Naphthol during the first minute of the assay was determined based on 1-Naphthol standard curve.

[4] = substrate: OC[C@@H]1O[C@@H](O[C@@H]2[C@@H](O[C@@H]3O[C@@H](CO)[C@H](O)[C@H]3O)[C@H](O[C@@H]3CO[C@@H](O[C@@H]4COC(O)[C@H](O)[C@H]4O)[C@H](O)[C@H]3O)OC[C@H]2O)[C@H](O)[C@H]1O; experiment: Enzyme activity of XuaE on AXOS (HPAEC-PAD); assay type: biochemical, Ruminiclostridium cellulolyticum; conditions: other: 37 °C, substrate 0.05 to 1 mM
Description: as §2

[5] = XuaA 8 µM, ligand 1 mM or 0.1 mM (X4, X5, X6), 25 mM phosphate buffer pH 7, mean of at least 2 experiments
[6] = XuaE versus XuaD on the same substrate

Molecule	TSA ∆T (XuaA [1]; [5]) [°C]	Products released by XuaD (XuaD)	Specific activity (IU) of XuaD (XuaD)	Specific activity (IU) of XuaG (XuaG)	Specific activity (IU) of XuaF (XuaF)	other results
OC[C@@H]1O[C@@H](O[C@@H]2[C@@H](O[C@@H]3O[C@@H](CO)[C@H](O)[C@H]3O)[C@H](O[C@@H]3CO[C@@H](O[C@@H]4COC(O)[C@H](O)[C@H]4O)[C@H](O)[C@H]3O)OC[C@H]2O)[C@H](O)[C@H]1O (stereo partly shown) [A^2,3XX]	13.5	Products: Ara, X3	IU: 1256.3 ± 50.2 IU/µmol of enzyme	blocks the activity		ITC -T∆S (XuaA [2]): 15.1 ± 2.8 kcal/mol; ITC N (sites) (XuaA [2]): 0.796 ± 2.37e-2 sites; Kd (XuaA [2]): 12 ± 4.6 nM; Products released by XuaE (XuaE): Products: Ara, A^2XX, A^3XX?; Km of XuaE relative to XuaD (fold lower) (XuaE; [6]): 18 fold; kcat of XuaE relative to XuaD (XuaE; [6]): twofold lower; Specific activity (IU) of XuaE (XuaE): IU: 1938.0 ± 109.6 IU/µmol of enzyme
OC[C@@H]1O[C@@H](O[C@H]2[C@H](O[C@@H]3CO[C@@H](O[C@@H]4COC(O)[C@H](O)[C@H]4O)[C@H](O)[C@H]3O)OC[C@@H](O)[C@@H]2O)[C@H](O)[C@H]1O (stereo partly shown) [A^2XX]	6.5	Products: Ara, X3	IU: 1263.0 ± 46.1 IU/µmol of enzyme	blocks the activity	IU: 202.3 ± 18.7 IU/µmol of enzyme	
OC[C@H]1OC(O)[C@H](O)[C@@H](O)[C@@H]1O (stereo partly shown) [G, glucose]						ΔTm at 1000 µM (XuaA [1]; pH 7, read-out: TSA ∆T): 0 °C; Binding to XuaA (in words) (XuaA [1]): does not bind
OC1OC[C@@H](O[C@@H]2OC[C@@H](O)[C@H](O)[C@H]2O)[C@H](O)[C@H]1O (stereo partly shown) [X2, xylobiose]	0				not active	
OC1OC[C@@H](O[C@@H]2OC[C@@H](O[C@@H]3OC[C@@H](O)[C@H](O)[C@H]3O)[C@H](O)[C@H]2O)[C@H](O)[C@H]1O (stereo partly shown) [X3, xylotriose]	0			IU: 24.5 ± 1.6 IU/µmol of enzyme	IU: 158.7 ± 21.1 IU/µmol of enzyme	
OC1OC[C@@H](O[C@@H]2OC[C@@H](O[C@@H]3OC[C@@H](O[C@@H]4OC[C@@H](O)[C@H](O)[C@H]4O)[C@H](O)[C@H]3O)[C@H](O)[C@H]2O)[C@H](O)[C@H]1O (stereo partly shown) [X4]	0			IU: 23.3 ± 0.5 IU/µmol of enzyme	IU: 87.2 ± 7.6 IU/µmol of enzyme	
OC1OC[C@@H](O[C@@H]2OC[C@@H](O[C@@H]3OC[C@@H](O[C@@H]4OC[C@@H](O[C@@H]5OC[C@@H](O)[C@H](O)[C@H]5O)[C@H](O)[C@H]4O)[C@H](O)[C@H]3O)[C@H](O)[C@H]2O)[C@H](O)[C@H]1O (stereo partly shown) [X5]				IU: 6.2 ± 0.5 IU/µmol of enzyme	IU: 25.3 ± 0.7 IU/µmol of enzyme	ΔTm at 100 µM (XuaA [1]; pH 7, ligand 100 µM, Additional file 1, read-out: TSA ∆T): 0 °C
OC1OC[C@@H](O[C@@H]2OC[C@@H](O[C@@H]3OC[C@@H](O[C@@H]4OC[C@@H](O[C@@H]5OC[C@@H](O[C@@H]6OC[C@@H](O)[C@H](O)[C@H]6O)[C@H](O)[C@H]5O)[C@H](O)[C@H]4O)[C@H](O)[C@H]3O)[C@H](O)[C@H]2O)[C@H](O)[C@H]1O (stereo partly shown) [X6, Xylohexaose]	0					TSA ∆T (XuaA [1]; ligand 100 µM, Additional file 1): 0 °C
O=C[C@H](O)[C@@H](O)[C@H](O)CO [X, xylose]						ΔTm at 1000 µM (XuaA [1]; pH 7, ligand 1 mM, Additional file 1, read-out: TSA ∆T): 0 °C; Binding to XuaA (in words) (XuaA [1]): does not bind; also recorded: failed to bind
OC[C@@H]1O[C@@H](O[C@@H]2[C@@H](O[C@@H]3O[C@@H](CO)[C@H](O)[C@H]3O)[C@H](O[C@@H]3CO[C@@H](O[C@@H]4COC(O)[C@H](O)[C@H]4O)[C@H](O)[C@H]3O)OC[C@H]2O[C@@H]2OC[C@@H](O)[C@H](O)[C@H]2O)[C@H](O)[C@H]1O (stereo partly shown) [XA^2,3XX]	14	Products: Ara, X4	IU: 1.5 ± 0.03 IU/µmol of enzyme	IU: 20.3 ± 0.2 IU/µmol of enzyme	IU: 29.7 ± 2.8 IU/µmol of enzyme	ITC -T∆S (XuaA [2]): 4.8 ± 0.5 kcal/mol; ITC N (sites) (XuaA [2]): 1.05 ± 5.67e-2 sites; Kd (XuaA [2]): 15.9 ± 0.1 nM; Products released by XuaE (XuaE): Products: Ara, XA^2XX, XA^3XX; Specific activity (IU) of XuaE (XuaE): IU: 1927.2 ± 100.4 IU/µmol of enzyme
OC[C@@H]1O[C@@H](O[C@@H]2[C@@H](O)[C@H](O[C@@H]3CO[C@@H](O[C@@H]4COC(O)[C@H](O)[C@H]4O)[C@H](O)[C@H]3O)OC[C@H]2O[C@@H]2OC[C@@H](O)[C@H](O)[C@H]2O)[C@H](O)[C@H]1O (stereo partly shown) [XA^3XX]	11.0	Products: Ara, X4	IU: 1218.9 ± 38.5 IU/µmol of enzyme	IU: 21.2 ± 0.2 IU/µmol of enzyme	IU: 166.7 ± 12.8 IU/µmol of enzyme	ITC -T∆S (XuaA [2]): 11.6 ± 1.2 kcal/mol; ITC N (sites) (XuaA [2]): 0.652 ± 2.83e-3 sites; Kd (XuaA [2]): 40.4 ± 9.3 nM; Products released by XuaE (XuaE): Products: Ara, X4
B1						Km [3]: Km: 3.5 ± 1.1 mM; kcat [3]: kcat: 5435.7 ± 846.4 min^−1; kcat/Km [3]: kcat/Km: 1628.1 ± 295.7 min^−1 mM^−1
B2						Km [4]: Km 0.1 ± 0.003 mM; kcat [4]: kcat 2253.5 ± 142.1 min^−1; kcat/Km [4]: kcat/Km 23137.8 ± 1355.0 min^−1 mM^−1
